The values below come from ChEMBL document CHEMBL1201862, “PubChem BioAssay data set” (2004).

Holding throughout (assay): NCI anticancer screen, dose series, 48 h
Assay [1] deals with SK-OV-3.
The test system of assay [2] is A498.
The test system of assay [3] is MOLT-4.
The subject of assay [4] is SK-MEL-2.
Assay [5] relates to NCI-H460.
For assay [6], the system named is 786-0.
The subject of assay [7] is TK-10.
Assay [8] relates to CAKI-1.
Assay [9] has as its system NCI/ADR-RES.
Assay [10] has as its system SW-620.
For assay [11], the system named is ACHN.
Assay [12] relates to Hs-578T.
The test system of assay [13] is COLO 205.
The subject of assay [14] is SN12C.
Assay [15] concerns HCT-15.
In assay [16] the test system is SK-MEL-28.
Assay [17] deals with MDA-MB-435.
Assay [18] concerns UO-31.
For assay [19], the system named is SF-268.
Assay [20] concerns SF-539.

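Growth conditions: 96-well plates. Treatment: test compound, 48 hours, 5 concentrations. Analysis: linear interpolation between bracketing concentrations; unreached endpoints set to highest concentration. Here, GI50 denotes the concentration required for 50% inhibition of growth.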 Activity calls are given as the source filed them. No stated cut-off is given here; in the data, active = GI50 up to about 1.1 µM and inactive = higher.

As to `COc1cc(C2c3cc4c(cc3OC(C)(N3CCCC3)C2C)OCO4)cc(OC)c1OC` (stereo not given), the GI50 in [1] is 0.391 µM (active); in [2] it was 0.302 µM (active); in assay [3], 0.3 µM (active); in assay [4], 0.405 µM (active); in assay [5] it was 0.473 µM (active); in [6] it was 0.428 µM (active). In addition, the GI50 was 0.524 µM (active) in assay [7]; 1.09 µM (active) in assay [8]; 0.192 µM (active) in [9]; 0.153 µM (active) in assay [10]; 0.815 µM (active) in [11]; 0.273 µM (active) in [12]. For the same compound, the GI50 in [13] is 0.22 µM (active); in assay [14], 0.446 µM (active); in assay [15] it was 0.472 µM; in [16], 0.798 µM (active); in [17], 0.128 µM (active); in assay [18] it was 1.26 µM (inactive). The GI50 in assay [19] was 0.714 µM (active); in assay [20], 0.229 µM (active).

For `O=c1oc2ccccc2c(O)c1C(C/C(CCN1CCCC1)=N/O)c1ccccc1` (stereo not given), the GI50 in assay [1] was > 100 µM (inactive); in assay [2], > 100 µM (inactive); in assay [3], > 48 µM (inactive); in [4] it was > 100 µM (inactive); in [5], > 100 µM (inactive); in assay [6], > 100 µM (inactive). Moreover, the GI50 in [7], in [8], in [9], in [10], in [11] and in assay [12] was > 100 µM (inactive) each time. Also, the GI50 in assay [13] was > 100 µM (inactive); in [14], > 100 µM (inactive); in [15], above 100 µM; in [16], > 100 µM (inactive); in assay [17], > 100 µM (inactive); in [18], > 100 µM (inactive). The GI50 in assay [19] and in [20] was > 100 µM (inactive) throughout.

For the compound `c1ccc(/N=c2/[nH]c3ccccc3s/c2=N/c2ccccc2)cc1`, the GI50 in assay [1] was > 100 µM (inactive); in [2], > 100 µM (inactive); in assay [3], > 100 µM (inactive); in [4], 77.1 µM (inactive); in assay [5], 28.1 µM (inactive); in [6] it was > 100 µM (inactive). The GI50 in [7], in assay [8], in assay [9], in [10], in [11] and in assay [12] was > 100 µM (inactive) in each case. Besides, the GI50 in assay [13] was > 100 µM (inactive); in [14] it was > 100 µM (inactive); in assay [15], above 100 µM; in assay [16], > 100 µM (inactive); in [17] it was > 100 µM (inactive); in assay [18], > 100 µM (inactive). Further, the GI50 in assay [19] and in assay [20] was > 100 µM (inactive) throughout.

As for `Cc1cc(=O)oc2cc3oc(N(C)c4ccccc4)nc(=O)c3cc12`, the GI50 in assay [1], in assay [2], in assay [3], in assay [4], in [5] and in assay [6] was > 100 µM (inactive) throughout. Further, the GI50 in assay [7] is > 100 µM (inactive); in [8], > 100 µM (inactive); in assay [9], > 100 µM (inactive); in assay [10], > 100 µM (inactive); in [11], > 100 µM (inactive); in [12] it was 46.7 µM (inactive). Besides, the GI50 in [13] was > 100 µM (inactive); in [14], > 100 µM (inactive); in assay [15], above 100 µM; in assay [16], > 100 µM (inactive); in [17], > 100 µM (inactive); in assay [18], > 100 µM (inactive). The GI50 in assay [19] is 40.9 µM (inactive); in [20], > 100 µM (inactive).

As for `CCN(CC)CCNc1ccc2ncn3c4ccc(OC)cc4c(=O)c1c23`, the GI50 in assay [1] was 7.71 µM (inactive); in [2] it was 6.7 µM (inactive); in [3], 0.31 µM (active); in [4], 9.25 µM (inactive); in assay [5], 0.646 µM (active); in assay [6], 2.22 µM (inactive). The GI50 in [7] is 10.4 µM (inactive); in assay [8], 5.65 µM (inactive); in assay [9], 0.885 µM (active); in [10], 1.36 µM (inactive); in [11], 1.05 µM (active); in assay [12], 11.1 µM (inactive). Besides, the GI50 in assay [13] was 1.49 µM (inactive); in [14], 2.14 µM (inactive); in assay [15] it was 1.57 µM; in [16], 14.3 µM (inactive); in assay [17], 5.21 µM (inactive); in assay [18], 1.82 µM (inactive). The values for the GI50 in assay [19] and in assay [20] were 2.21 µM (inactive) and 4.24 µM (inactive), respectively.

For the compound `COc1ccc(-n2c(SC(CN3CCOCC3)CN3CCCC3=O)nc3ccccc3c2=O)cc1` (stereo not given), the GI50 in [1] is > 100 µM (inactive); in assay [2], > 100 µM (inactive); in [3] it was 90.8 µM (inactive); in assay [4], > 100 µM (inactive); in [5], > 100 µM (inactive); in assay [6] it was > 100 µM (inactive). In addition, the GI50 is 95.1 µM (inactive) in assay [7]; 43.7 µM (inactive) in assay [8]; > 100 µM (inactive) in assay [9]; > 100 µM (inactive) in assay [10]; 46 µM (inactive) in assay [11]; > 100 µM (inactive) in [12]. Also, the GI50 in assay [13] was > 100 µM (inactive); in assay [14], > 100 µM (inactive); in assay [15], above 100 µM; in [16], 82.6 µM (inactive); in assay [17], > 100 µM (inactive); in assay [18], 35.6 µM (inactive). For the same compound, the GI50 in assay [19] is > 100 µM (inactive); in assay [20], 58.7 µM (inactive).

Regarding `CCOc1cc(/C=N/c2ccc(Oc3ccc(Cl)cc3)c(Cl)c2)ccc1O`, the GI50 is 26.1 µM (inactive) in assay [1]; 12.4 µM (inactive) in assay [2]; 18.7 µM (inactive) in [3]; 24.5 µM (inactive) in assay [4]; 18.6 µM (inactive) in assay [5]; 17 µM (inactive) in assay [6]. For the same compound, the GI50 in assay [7] is 43.1 µM (inactive); in assay [8], 19.8 µM (inactive); in assay [9], 21.8 µM (inactive); in assay [10], 29.6 µM (inactive); in assay [11] it was 32.4 µM (inactive); in assay [12] it was 18.8 µM (inactive). Moreover, the GI50 in assay [13] is 17.5 µM (inactive); in assay [14] it was 20.8 µM (inactive); in assay [15] it was 22.5 µM; in assay [16], 25.2 µM (inactive); in assay [17], 35.3 µM (inactive); in [18], 11.8 µM (inactive). For the same compound, the GI50 was 15.7 µM (inactive) in assay [19] and 22.8 µM (inactive) in assay [20].

As to `COc1ccc(CNc2nc(NCc3ccc(OC)cc3)nc(Nc3ccccc3)n2)cc1`, the GI50 in assay [1] is 61.5 µM (inactive); in assay [2] it was 39.1 µM (inactive); in [3] it was 3.01 µM (inactive); in assay [4] it was > 100 µM (inactive); in [5] it was 7.16 µM (inactive); in assay [6], 49.7 µM (inactive). Also, the GI50 in assay [7] is 21.5 µM (inactive); in assay [8] it was 3.35 µM (inactive); in [9], 9.14 µM (inactive); in assay [10] it was 6.46 µM (inactive); in assay [11], 13.1 µM (inactive); in assay [12], 30.1 µM (inactive). Moreover, the GI50 was 4.82 µM (inactive) in [13]; 46 µM (inactive) in assay [14]; 3.39 µM in assay [15]; 4.72 µM (inactive) in assay [16]; 2.22 µM (inactive) in [17]; > 100 µM (inactive) in assay [18]. Moreover, the GI50 is > 100 µM (inactive) in assay [19] and 14.2 µM (inactive) in [20].

As for `C[C@@H]1C(O)CC[C@H](C)C12CC=CC2=O` (stereo not given in full), the GI50 in assay [1], in assay [2], in assay [3], in assay [4], in [5] and in assay [6] was > 100 µM (inactive) in each case. Moreover, the GI50 in assay [7], in [8], in assay [9], in assay [10], in [11] and in assay [12] was > 100 µM (inactive) throughout. The GI50 in assay [13] was > 100 µM (inactive); in assay [14], > 100 µM (inactive); in [15], above 100 µM; in assay [16] it was > 100 µM (inactive); in [17], > 100 µM (inactive); in [18], > 100 µM (inactive). For the same compound, the GI50 in assay [19] and in [20] was > 100 µM (inactive) throughout.

Consider `COc1ccc(C(=O)/C=C/c2ccc(Oc3cc(C(=O)/C=C/c4ccc(O)cc4)c(O)cc3OC)cc2)c(O)c1` [RHUSCHALCONE I], for which the GI50 is 9.86 µM (inactive) in [1]; 1.67 µM (inactive) in [2]; 2.52 µM (inactive) in assay [3]; 8.57 µM (inactive) in [4]; 4.33 µM (inactive) in assay [5]; 2.51 µM (inactive) in [6]. For the same compound, the GI50 in assay [7] is 4.06 µM (inactive); in assay [8], 4.1 µM (inactive); in assay [9], 3.24 µM (inactive); in assay [10], 4.72 µM (inactive); in assay [11], 2.9 µM (inactive); in [12], 16.7 µM (inactive). The GI50 in [13] was 4.34 µM (inactive); in assay [14] it was 3.74 µM (inactive); in assay [15] it was 2.43 µM; in [16] it was 2.74 µM (inactive); in assay [17], 3.55 µM (inactive); in assay [18] it was 3.59 µM (inactive). Besides, the values for the GI50 in assay [19] and in assay [20] were 5.19 µM (inactive) and 2.19 µM (inactive), respectively.
